Data reported in publication PMC12566046, “Arylpiperazinyl-Benzocycloheptapyrrole-Carboxamides Endowed with Dual Anticancer and Antiviral Activities” (Molecules, 2025).

Experiments:
[1] = system: COLO 205 (colon cancer cell line); assay: NCI-60 single-dose assay; format: cell-based, human; details: human
In short: (§1)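 Cytotoxicity was screened at a single dose across the NCI-60 human tumour cell panel, which covers leukemia, melanoma and lung, colon, CNS, ovarian, renal, prostate and breast cancers.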

[2] = system: SN12C (renal cancer cell line); assay: NCI-60 single-dose assay; format: cell-based, human; details: Homo sapiens, read-out: growth inhibition (GI%) and cytotoxicity (negative values)
In short: as §1

[3] = system: 786-0 (renal cancer cell line); assay: NCI-60 single-dose assay; format: cell-based, human; details: Homo sapiens, 786-0, read-out: growth inhibition (GI%) and cytotoxicity (negative values)
In short: as §1

[4] = system: HCT-116 (colon cancer cell line); assay: NCI-60 single-dose assay; format: cell-based, human; details: Homo sapiens, HCT-116, read-out: growth inhibition (GI%) and cytotoxicity (negative values)
In short: as §1

[5] = system: NCI-H522 (non-small cell lung cancer cell line); assay: NCI-60 single-dose assay; format: cell-based, human; details: Homo sapiens, NCI-H522, read-out: growth inhibition (GI%) and cytotoxicity (negative values)
In short: as §1

[6] = system: UACC-62 (melanoma cell line); assay: NCI-60 single-dose assay; format: cell-based, human; details: human
In short: as §1

[7] = system: MALME-3M (melanoma cell line); assay: NCI-60 single-dose assay; format: cell-based, human; details: human
In short: as §1

[8] = system: HT29 (colon cancer cell line); assay: NCI-60 single-dose assay; format: cell-based, human; details: Homo sapiens, HT-29, read-out: growth inhibition (GI%) and cytotoxicity (negative values)
In short: as §1

[9] = system: NCI-H460 (non-small cell lung cancer cell line); assay: NCI-60 single-dose assay; format: cell-based, human; details: Homo sapiens, NCI-H460, read-out: growth inhibition (GI%) and cytotoxicity (negative values)
In short: as §1

[10] = system: MCF-7 (breast cancer cell line); assay: NCI-60 single-dose assay; format: cell-based, human; details: Homo sapiens, MCF7, read-out: growth inhibition (GI%) and cytotoxicity (negative values), MCF-7, 10^−5 M
In short: as §1

[11] = system: NCI-H23 (non-small cell lung cancer cell line); assay: NCI-60 single-dose assay; format: cell-based, human; details: Homo sapiens, NCI-H23, read-out: growth inhibition (GI%) and cytotoxicity (negative values)
In short: as §1

[12] = system: CCRF-CEM (leukemia cell line); assay: NCI-60 single-dose assay; format: cell-based, human; details: Homo sapiens, read-out: growth inhibition (GI%) and cytotoxicity (negative values)
In short: as §1

[13] = system: CAKI-1 (renal cancer cell line); assay: NCI-60 single-dose assay; format: cell-based, human; details: Homo sapiens, CAKI-1, read-out: growth inhibition (GI%) and cytotoxicity (negative values)
In short: as §1

[14] = system: SR (leukemia cell line); assay: NCI-60 single-dose assay; format: cell-based, human; details: Homo sapiens, read-out: growth inhibition (GI%) and cytotoxicity (negative values)
In short: as §1

[15] = system: UO-31 (renal cancer cell line); assay: NCI-60 single-dose assay; format: cell-based, human; details: Homo sapiens, UO-31, read-out: growth inhibition (GI%) and cytotoxicity (negative values)
In short: as §1

[16] = system: LOX IMVI (melanoma cell line); assay: NCI-60 single-dose assay; format: cell-based, human; details: human
In short: as §1

[17] = system: MDA-MB-435 (melanoma cell line); assay: NCI-60 single-dose assay; format: cell-based, human; details: human
In short: as §1

[18] = system: UACC-257 (melanoma cell line); assay: NCI-60 single-dose assay; format: cell-based, human; details: human
In short: as §1

[19] = system: SK-MEL-28 (melanoma cell line); assay: NCI-60 single-dose assay; format: cell-based, human; details: human
In short: as §1

[20] = system: SW-620 (colon cancer cell line); assay: NCI-60 single-dose assay; format: cell-based, human; details: human
In short: as §1

[21] = system: BT-549 (breast cancer cell line); assay: NCI-60 single-dose assay; format: cell-based, human; details: Homo sapiens, BT-549, read-out: growth inhibition (GI%) and cytotoxicity (negative values)
In short: as §1

[22] = system: T-47D (breast cancer cell line); assay: NCI-60 single-dose assay; format: cell-based, human; details: Homo sapiens, T47D, read-out: growth inhibition (GI%) and cytotoxicity (negative values)
In short: as §1

[23] = system: HCC-2998 (colon cancer cell line); assay: NCI-60 single-dose assay; format: cell-based, human; details: human
In short: as §1

[24] = system: NCI-H226 (non-small cell lung cancer cell line); assay: NCI-60 single-dose assay; format: cell-based, human; details: Homo sapiens, NCI-H226, read-out: growth inhibition (GI%) and cytotoxicity (negative values)
In short: as §1

[25] = system: SK-MEL-2 (melanoma cell line); assay: NCI-60 single-dose assay; format: cell-based, human; details: human
In short: as §1

[26] = system: M14 (melanoma cell line); assay: NCI-60 single-dose assay; format: cell-based, human; details: human
In short: as §1

[27] = system: RPMI-8226 (leukemia cell line); assay: NCI-60 single-dose assay; format: cell-based, human; details: human
In short: as §1

[28] = system: KM12 (colon cancer cell line); assay: NCI-60 single-dose assay; format: cell-based, human; details: Homo sapiens, KM12, read-out: growth inhibition (GI%) and cytotoxicity (negative values)
In short: as §1

[29] = system: EKVX (non-small cell lung cancer cell line); assay: NCI-60 single-dose assay; format: cell-based, human; details: Homo sapiens, read-out: growth inhibition (GI%) and cytotoxicity (negative values)
In short: as §1

[30] = system: MDA-MB-231/ATCC (breast cancer cell line); assay: NCI-60 single-dose assay; format: cell-based, human; details: Homo sapiens, MDA-MB-231, read-out: growth inhibition (GI%) and cytotoxicity (negative values)
In short: as §1

[31] = system: RXF 393 (renal cancer cell line); assay: NCI-60 single-dose assay; format: cell-based, human; details: Homo sapiens, RXF 393, read-out: growth inhibition (GI%) and cytotoxicity (negative values)
In short: as §1

[32] = system: HL-60(TB) (leukemia cell line); assay: NCI-60 single-dose assay; format: cell-based, human; details: human
[33] = system: HCT-15 (colon cancer cell line); assay: NCI-60 single-dose assay; format: cell-based, human; details: Homo sapiens, HCT-15, read-out: growth inhibition (GI%) and cytotoxicity (negative values)
In short: as §1

[34] = system: IAV strain A/PR/8/34 (H1N1); assay: microbe, parasite or virus in culture; details: Influenza A virus, MDCK, read-out: IAV/MDCK EC50
[35] = system: K-562 (leukemia cell line); assay: NCI-60 single-dose assay; format: cell-based; details: Homo sapiens, K562, read-out: growth inhibition (GI%) and cytotoxicity (negative values)
In short: as §1

[36] = system: NCI-60 cell line panel; assay: NCI-60 single-dose assay, whole panel; format: cell-based, human; details: summary over the panel
In short: as §1

O=C(NCCCN1CCN(Cc2ccccc2)CC1)c1c(Cl)[nH]c2c1CCCc1ccccc1-2 [Compound 20, N-(3-(4-Benzylpiperazin-1-yl)propyl)-2-chloro-1,4,5,6-tetrahydrobenzo[6,7]cyclohepta[1,2-b]pyrrole-3-carboxamide]
growth inhibition (GI%) and cytotoxicity (negative values) [1]: −59.92%
inhibition at 10 µM [2]: < 60%
inhibition at 10 µM [3]: 87%
inhibition at 10 µM [4]: 95.5%
inhibition at 10 µM [5]: 92.2%
growth inhibition (GI%) and cytotoxicity (negative values) [6]: −59.22%
growth inhibition (GI%) and cytotoxicity (negative values) [7]: −84.03%
inhibition at 10 µM [8]: 94.7%
inhibition at 10 µM [9]: 83.1%
inhibition at 10 µM [10]: 95.5%
inhibition at 10 µM [11]: 60.2%
inhibition at 10 µM [12]: < 60%
inhibition at 10 µM [13]: 84.7%
inhibition at 10 µM [14]: 99.4%
inhibition at 10 µM [15]: 65.9%
growth inhibition (GI%) and cytotoxicity (negative values) [16]: −69.19%
growth inhibition (GI%) and cytotoxicity (negative values) [17]: −21.33%
growth inhibition (GI%) and cytotoxicity (negative values) [18]: −58.02%
growth inhibition (GI%) and cytotoxicity (negative values) [19]: −88.58%
growth inhibition (GI%) and cytotoxicity (negative values) [20]: −40.23%
inhibition at 10 µM [21]: 68.4%
inhibition at 10 µM [22]: 78.5%
growth inhibition (GI%) and cytotoxicity (negative values) [23]: −91.84%
inhibition at 10 µM [24]: < 60%
growth inhibition (GI%) and cytotoxicity (negative values) [25]: −52.93%
growth inhibition (GI%) and cytotoxicity (negative values) [26]: −69.37%
growth inhibition (GI%) and cytotoxicity (negative values) [27]: −1.74%
inhibition at 10 µM [28]: 70.3%
inhibition at 10 µM [29]: 77.2%
inhibition at 10 µM [30]: 62.6%
inhibition at 10 µM [31]: 78.2%
growth inhibition (GI%) and cytotoxicity (negative values) [32]: −23.10%
inhibition at 10 µM [33]: 99%
EC50 [34]: 17.7 µM
inhibition at 10 µM [35]: < 60%
growth inhibition (GI%) reached against cancer cell lines of the NCI-60 panel [36]: > 90%
